Test results as given in patent US20150148387A1, “METHODS OF TREATMENT, DIAGNOSIS AND […] METHA[…] WHICH TARGET CERAMIDE METABOLIC […] AND […] SENESCENCE” (priority 2012, published 2015).
Structures can show the parent of a compound that is named as a salt. Where two headings read alike, the source gives them in different places.

Experiments:
[1] = tested on: cytochrome P450 (CYP); experiment: Cell-associated methamphetamine content in MEF with CYP inhibitor (LC/MS); settings: methamphetamine 1 mM 24 h, inhibitor 1-10 μM
[2] = tested on: primary mouse embryonic fibroblasts (MEF); experiment: ROS production in MEF (CM-H2DCFDA); assay type: cell-based; settings: CYP inhibitors with methamphetamine
Description: Production of ROS was measured using the fluorescent probe CM-H2DCFDA (Invitrogen). This carboxy derivative of fluorescein carries additional negative charges that improve its retention compared to noncarboxylated forms. For these experiments, MEFs were grown in DMEM without phenol red, for which anti-oxidative properties have been reported. Cells were plated to subconfluence in 12-well plates, washed 3 times with pre-warmed PBS and loaded for 30 min at 37° C./5% CO2 with […] CM-H2DCFDA in DMEM without phenol red (loading medium). Then the loading medium was removed and pre-warmed fresh medium containing the different CYP450 inhibitors in presence or absence of methamphetamine was added. Fluorescence (excitation at 485 nm, emission at 530 nm) was analyzed immediately, cells were incubated at 37° C./5% CO2, and fluorescence was analyzed at the indicated time points. ROS rate versus control (%) was calculated subtracting the percentage of ROS increasing from time zero in the methamphetamine-treated samples to the percentage of ROS increasing from time zero in vehicle-treated samples.

[3] = tested on: primary mouse embryonic fibroblasts (MEF); assay type: cell-based
Description: (§1) Cells were washed with ice-cold phosphate-buffered saline (PBS) and scraped into 0.5 ml of methanol/water (1:1, vol:vol) containing the internal standards listed below. Protein concentrations were measured using the BCA protein assay (Pierce, Rockford, Ill., USA). Lipids were extracted with chloroform/methanol (2:1, vol:vol; 1.0 mL). The organic phases were collected, dried under nitrogen and dissolved in methanol for LC/MS analyses.
(§2) Helium was used as collision gas. […] Mobile phase composition was as described above.
(§3) Mouse embryonic fibroblasts (MEFs) were prepared from mice embryo as previously reported. Briefly, pregnant mice at day 13 post coitum were sacrificed and the uteri were dissected out. Each embryo was separated from the placenta and the head and visceral tissues were removed. The remaining body was minced in PBS and incubated with 0.1 mM trypsin/1 mM EDTA at 37° C. for 15 min. Two volumes of Dulbecco's Modified Eagle Medium (DMEM) containing 10% fetal bovine serum (FBS) was added and stood for 5 minutes to settle down large pieces of unbroken tissues. The supernatant was then removed and centrifuged at 200×g for 5 min and suspended in fresh DMEM containing 10% FBS. Cells were cultured at 37° C. with 5% CO2.

[4] = tested on: ceramide synthase (CerS); experiment: Acute methamphetamine administration in rats: ceramide synthase activity; assay type: in vivo, rat; settings: non-contingent methamphetamine administration; data not shown
Description: Three groups of rats were used for these experiments. […] Other details are the same as for group 1.
(§4) Fresh rat tissues were collected in 1 ml of homogenization buffer (25 mM HEPES, pH 7.4, containing 5 mM EGTA, 50 mM NaF, and complete mini EDTA-free protease inhibitor). Tissues were disrupted using pulse homogenizer, and centrifuged at 800×g for 5 min. The postnuclear supernatant was centrifuged at 250,000×g for 30 min at 4° C. in ultracentrifuge. The microsomal membrane pellet was resuspended in 250-500 μl of homogenization buffer. Protein concentration was measured using the BCA protein assay (Pierce, Rockford, Ill.).
Ceramide synthase activity was measured at 37° C. for 1 hr in HEPES buffer (20 mM, pH 7.4) containing 2 mM MgCl2, fatty acid-free bovine serum albumin (20 μmol) membrane proteins (0.05-0.1 mg), using dihydrosphingosine (sphinganine d17:0, 20 μmol) and palmitoyl-coenzyme A (70 μmol) as substrates. The reactions were stopped by adding chloroform-methanol (2:1, v/v) containing C12:0 ceramide (d18:1/12:0) as an internal standard. […] Products of reaction were measured using an Agilent 1100-LC system coupled to ion-trap XCT and interfaced with ESI (Agilent Technologies). […] For quantification purposes, we monitored the ions at m/z 526.5>508.5 for C17:0 dihydroceramide (d17:0/16:0) and m/z 482.5>464.5>264.3 for C12:0 ceramide (d18:1/12:0).

[5] = tested on: primary mouse embryonic fibroblasts (MEF); experiment: Population doubling; assay type: cell-based; settings: 1 mM; compared to control cells
Description: We plated 1×10^6 cells on a 60 mm dishes and treated them with 1 mM methamphetamine. Cells were trypsinized and re-plated at the same density (1×10^6 cells/dish) every 3 days for 6 passages. Population doublings were calculated according to the formula log (final cell number/plated cell number/log 2).

[6] = tested on: primary mouse embryonic fibroblasts (MEF); experiment: Crystal violet staining, cell morphology; assay type: cell-based; settings: 48 h, 1 mM, passage 2
Description: To study cell morphology, cells were plated and treated in 6-well plates. After fixation, with 4% paraformaldehyde cells were stained with crystal violet (0.5% crystal violet in methanol:PBS, 1:1, v/v). After thorough wash in tap water, images were taken using a Westover Scientific Series 8 microscope.

[7] = tested on: de novo ceramide biosynthesis; experiment: Methamphetamine self-administration in rats: lipidomic analysis of tissues by LC/MS
Description: Male Sprague-Dawley rats (Charles River, Wilmington, Mass.), weighing approximately 360-440 g at the beginning of the self-administration experiment, were individually housed in a temperature- and humidity-controlled environment under a reversed lighting 12-h light/dark cycle (lights on at 7:00 p.m.). The rats were allowed free access to food (NIH07 biscuits) in their home cage throughout the study. Water was available ad libitum in the home cage and in the testing chamber. Rats were tested in the light phase. They were experimentally and drug naïve at the beginning of this study.
Each of eighteen standard operant-conditioning chambers (Coulbourn Instruments, Lehigh Valley, Pa.) contained a white house light and two holes with nose-poke operanda on either side of a food trough. Upon activation, each nose poke produced a brief feedback tone. […] The tubing was attached to a syringe pump (Harvard Apparatus, South Natick, Mass.), which was programmed to deliver 2-s injections. The injected volume was adjusted for every animal to deliver a methamphetamine dose of 0.1 mg/kg/injection. Experimental events were controlled by microcomputers using MED Associates interfaces and software (Med Associates Inc., East Fairfield, Vt.).
Silastic catheter was implanted into the external jugular vein under anesthesia with a mixture of ketamine and xylazine (60 and 10 mg/kg i.p., respectively). Catheter exited the skin behind the ear. After catheter implantation, a nylon bolt glued to an acrylic mesh was implanted subcutaneously in the midscapular region. The nylon bolt served as a tether, preventing the catheter from being pulled out during self-administration sessions. Following surgery, the IV catheter was flushed daily during the first week with 0.2-0.3 ml of solution containing cephalosporin (100 mg/ml; Cefazolin For Injection, USP; Hospira Inc., Lake Forest, Ill., USA) and then flushed before and after each daily session with saline to maintain its patency) and then flushed after each daily session with saline to maintain its patency.
Each experimental group was divided into two subgroups that were tested simultaneously. One subgroup served as yoked controls and passively received an injection of saline (which was not contingent on responding) each time a response-contingent injection of 0.1 mg/kg methamphetamine was actively self-administered by the first subgroup of rats. […] The first experimental groups consisted of 12 rats self-administering methamphetamine and 6 yoked control rats. The second experimental group consisted of 9 rats self-administering methamphetamine and 9 yoked control rats. The third experimental group consisted of 16 rats self-administering methamphetamine and 8 yoked control rats. […] The pretreatment with L-CS was always given immediately before and after each session and the catheter was flushed with 0.5 ml of saline afterwards. Before and after sessions 4 and 5 animals received dose 10 mg/kg of L-CS and before and after sessions 6, 7, and 8 they received dose 20 mg/kg of L-CS. The animals received total dose 160 mg/kg of L-CS during the experiment.
Eight consecutive 15-hour sessions were conducted between 4 p.m. and 8 a.m. Rats and the food in the feeders were weighed before the start of each session. At the start of each session, a white house light was turned on and a priming injection of 0.1 mg/kg methamphetamine (or saline for yoked group), sufficient to fill the “dead” space of the IV catheter, was automatically delivered. Rats learned to self-administer methamphetamine under one-response, fixed ratio schedule (FRI) of i.v. methamphetamine injection with 30-s time-out duration.

[8] = tested on: de novo ceramide biosynthesis; experiment: Acute methamphetamine administration in rats: tissue lipid levels
Description: Forty-six male Sprague-Dawley rats (Charles River, Wilmington, Mass.), weighing approximately 360-420 g were used in these experiments.
Three groups of rats were used for these experiments. Group 1: On the day of the experiment, rats received two i.p. injections of methamphetamine, 10 mg/kg (n=6), or saline (n=6) every 2 h. Two hours after the last administration of methamphetamine or saline, rats were euthanized by decapitation. Brain, liver, kidney (left), heart, skin (hind paw), skeletal muscle (vastus lateralis muscle) were harvested. Brains and livers were snap-frozen in isopentane and other tissues were snap-frozen in liquid nitrogen and stored at −80° C. Group 2: On the day of the experiment, rats received two i.p. injections of methamphetamine, 1.5 mg/kg (n=6), or saline (n=6) every 2 h. Other details are the same as for group 1. Group 3: On the day of the experiment, five rats received two i.p. injections of 1.5 mg/kg methamphetamine every 2 h; five rats received two i.p. injections of 5 mg/kg methamphetamine every 2 h; six rats received two i.p. injections of 10 mg/kg D-methamphetamine every 2 h, and six rats received two i.p. injections of saline every 2 h. Two hours after the last injection, blood was collected by cardiac puncture under isoflurane anesthesia and immediately afterwards brain, skeletal muscle and skin were harvested and handled as described for group 1.
Briefly, frozen brain samples were weighed and homogenized in cold methanol containing appropriate internal standards (listed below). Lipids were extracted by adding chloroform and water (2/1, vol/vol) and fractionated through open-bed silica gel columns by progressive elution with chloroform/methanol mixtures. Fractions eluted from the columns were dried under nitrogen, reconstituted in chloroform/methanol (1:4, vol/vol; 0.1 ml) and subjected to LC/MS.
Sphingolipid molecular species were analyzed by tandem mass spectrometry, using an Agilent 1100 liquid chromatography coupled to an ESI-ion-trap XCT mass detector. Dihydroceramides and ceramides were separated on a Poroshell 300 SB C18 column (2.1×75 mm i.d., 5 μm; Agilent Technologies) maintained at 30° C. […] Extracted ion chromatograms were used to quantify the following ceramides: d18:1/16:0 [M+H]^+ (m/z=538.5>520.5>264.3), d18:0/16:0 [M+H]^+ (m/z=540.5>522.5), d18:1/18:0 [M+H]^+ (m/z=566.5>548.5>264.3), d18:0/18:0 [M+H]^+ (m/z=568.5>550.5), d18:1/24:0 [M+H]^+ (m/z=650.6>632.8>2643), d18:0/24:0 [M+H]^+ (m/z=652.6>634.8), d18:1/24:1 [M+H]^+ (m/z=648.6>630.8>264.3), d18:0/24:1 [M+H]^+ (m/z=650.6>632.8), using d18:1/12:0 [M+H]^+ (m/z=482.5>464.5>264.3) as an internal standard. […]

[9] = tested on: primary mouse embryonic fibroblasts (MEF); experiment: DNA replication assay ([3H]thymidine); settings: 48 h, 1 mM
[10] = tested on: ceramide content and IL-6 and p21 mRNA; experiment: Acute experiment in mice: methamphetamine alone or in combination with L-CS; settings: acute treatment with methamphetamine alone
[11] = tested on: ceramide synthase (CerS); experiment: Methamphetamine self-administration in rats: ceramide synthase activity in tissue; assay type: in vivo, rat; settings: self-administering rats; data not shown
Description: as §4
Ceramide synthase activity was measured at 37° C. for 1 hr in HEPES buffer (20 mM, pH 7.4) containing 2 mM MgCl2, fatty acid-free bovine serum albumin (20 μmol) membrane proteins (0.05-0.1 mg), using dihydrosphingosine (sphinganine d17:0, 20 μmol) and palmitoyl-coenzyme A (70 μmol) as substrates. The reactions were stopped by adding chloroform-methanol (2:1, v/v) containing C12:0 ceramide (d18:1/12:0) as an internal standard. Lipid extracts were dried under nitrogen and reconstituted in chloroform-methanol (1:3, v/v; 0.1 ml) for LC-MS analyses. Products of reaction were measured using an Agilent 1100-LC system coupled to ion-trap XCT and interfaced with ESI (Agilent Technologies). […] For quantification purposes, we monitored the ions at m/z 526.5>508.5 for C17:0 dihydroceramide (d17:0/16:0) and m/z 482.5>464.5>264.3 for C12:0 ceramide (d18:1/12:0).

[12] = tested on: primary mouse embryonic fibroblasts (MEF); experiment: Gene expression in MEF; assay type: cell-based
Description: Total RNA was extracted from frozen tissues using TRIzol reagent (Invitrogen, Carlsbad, Calif.) and was purified with the RNeasy mini kit (Qiagen, Valencia, Calif.). First-strand complementary DNAs were synthesized using SuperScript II RNaseH reverse transcriptase (Invitrogen). Reverse transcription of total RNA (2 μg) was carried out using oligo(dT)12-18 primers for 50 min at 42° C. mRNA levels were measured by quantitative real-time polymerase chain reaction (RT-PCR) with a Mx 3000P system (Stratagene, La Jolla, Calif.). The following list of primers and fluorogenic probes purchased from Applied Biosystems (TaqMan Gene Expression Assays, Foster City, Calif.): Ceramide Synthase 1 (Rn01420081_m1), Ceramide Synthase 2 (Rn01762789_m1), Ceramide Synthase 4 (Rn01767402_m1), Ceramide Synthase 5 (Rn01532864_m1), Ceramide Synthase 6 (Rn01270930_m1), Interleukin-6 (Rn01410330_m1). mRNA levels were normalized using beta actin, 18S ribosomal protein or glyceraldehyde-3-phosphate dehydrogenase as internal standards. Additional PCR primers were designed using Primer 3 (https://www.Frodo.wit.mit.edu), and the sequences are shown in S.Table XXX.
as §3

[13] = tested on: isolated mitochondria from primary MEF; experiment: Lipid analysis of isolated mitochondria from MEF; assay type: cell-based, mouse; settings: methamphetamine 1 mM
Description: as §1, §2, §3

[14] = tested on: primary mouse embryonic fibroblasts (MEF); assay type: cell-based; settings: 1 mM, 48 h
Description: Detection of senescence-associated β-galactosidase staining was performed as previously reported. Briefly, we plated MEFs on Lab-Tek chamber slides at a density of 5×10^4 cells per chamber. Next day, cells were treated with the indicated dose of drug for 48 hours. Cells were washed twice with PBS and fixed in 2% formaldehyde/0.2% glutaraldehyde for five minutes at room temperature. After two PBS washes the slides were incubated with fresh β-galactosidase stain solution (1 mg/mL 5-bromo-4-chloro-3-indoyl β-D-galactoside (X-Gal) 40 mM sodium phosphate, pH 6.0, 5 mM potassium ferrocyanide, 5 mM potassium ferricyanide, 150 mM NaCl, and 2 mM MgCl2) at 37° C. for 12-16 hours. Slides were washed with PBS and mounted with DAPI containing media. Images were taken for the β-gal staining and overlapped with fluorescent images taken of the same region to count the number of cells staining positive for β-gal (Nikon Eclipse E600). More than 200 cells from 5 different regions of a slide were counted in a blind fashion.

[15] = skeletal muscle, rats self-administering methamphetamine vs controls
[16] = skeletal muscle, self-administering rats vs controls

## Clc1ccccc1C(c1ccccc1)(c1ccccc1)n1ccnc1 [clotrimazole]
[1]
  levels of non-metabolized methamphetamine: increased
[2]
  release of ROS evoked by methamphetamine: prevented
[3]; MEF without methamphetamine, inhibitor 10 μM, n=3, […]
  baseline ceramide content: 49.2±3 pmol-mg^−1 protein
[3]; MEF, inhibitor 1-10 μM
  methamphetamine-induced ceramide accumulation: decreased

## CN[C@@H](C)Cc1ccccc1 [methamphetamine, S(+)-methylamphetamine HCl]
[4]
  CerS activity: increased
[5]
  number of population doublings: decreased
[6]
  cell morphology: morphological changes typical of senescent phenotype
[7]; [15]
  increase in ceramide (d18:1/16:0): 4 fold
  increase in dihydroceramide (d18:1/16:0): 4 fold
[7]; [16]
  levels of dihydrosphingomyelin (d18:1/16:0): unchanged
  levels of sphingomyelin (d18:1/16:0): unchanged
[7]; various tissues, largest increase in skeletal muscle, heart and liver, methamphetamine-exposed rats vs controls
  multiple ceramide species: substantially increased
[8]; dorsal striatum, 2×10 mg/kg intraperitoneal
  striatal levels of various ceramide species: marked increase
[8]; low doses (i.e., non-toxic)
  changes in ceramide species: did not induce any changes
[8]; plasma, skeletal muscle, heart, liver and skin, 2×10 mg/kg intraperitoneal
  ceramide levels in peripheral tissues: marked increases
[8]; rat skeletal muscle, intraperitoneal 3, 10, and 20 mg/kg
  d18:1/16:0 ceramide levels: dose-dependent increase
[9]
  DNA synthesis, [3H]-thymidine: decreased
[3]; incubation of MEF with the drug alone
  ceramide (d18:1/16:0) content: increased ceramide (d18:1/16:0) in a dose-dependent manner
[10]
  ceramide content: increased
[11]
  CerS activity: increased
[12]; MEF treated with methamphetamine
  mRNA levels of the genes involved de novo ceramide biosynthesis: increased
[12]; MEF, methamphetamine treatment
  p21 and p53 transcription: increase
[13]
  long chain ceramides (d18:1/24:0 and d18:1/24:1): mitochondrial specific increase
  short chain ceramide (d18:1/16:0): increases
[14]; passage 1 to 4, vs vehicle-treated cells
  number of SA-β-gal positive cells: increased
[14]; passage 3, versus non-treated cells
  increase in the number of SA-β-gal positive cells: greater than 4 fold
[14]; passage 5
  number of SA-β-gal positive cells: did not further increase
